The source made the active and inactive calls. No cut-off for these calls is given here.
What was measured:
[1] = Toxicity in BALB/c mouse xenografted with human MDA-MB-231 cells assessed as morphological change in spleen at 20 mg/kg,ip administrated for 21 consecutive days by hematoxylin and eosin staining based analysis; format: organism-based; conditions: in vivo
[2] = Toxicity in BALB/c mouse xenografted with human MDA-MB-231 cells assessed as morphological change in heart at 20 mg/kg,ip administrated for 21 consecutive days by hematoxylin and eosin staining based analysis; format: organism-based; conditions: in vivo
MDA-MB-231 [3] = assay: Antitumor activity against human MDA-MB-231 cells xenografted in BALB/c mouse assessed as decrease in GPX4 expression at 40 mg/kg,ip administrated for 21 consecutive days by immunohistochemistry; format: functional, organism-based
[4] = Toxicity in BALB/c mouse xenografted with human MDA-MB-231 cells assessed as change in body weight at 20 mg/kg,ip administrated for 21 consecutive days; format: organism-based; conditions: in vivo
[5] = Toxicity in BALB/c mouse xenografted with human MDA-MB-231 cells assessed as change in body weight at 40 mg/kg,ip administrated for 21 consecutive days; format: organism-based; conditions: in vivo
[6] = Toxicity in BALB/c mouse xenografted with human MDA-MB-231 cells assessed as morphological change in kidney at 40 mg/kg,ip administrated for 21 consecutive days by hematoxylin and eosin staining based analysis; format: organism-based; conditions: in vivo
[7] = Tmax in Sprague-Dawley rat at 10 mg/kg,iv administration measured upto 24 hrs by LC-MS/MS analysis; format: ADME, organism-based; conditions: in vivo
HepG2 = assay: cells; conditions: Homo sapiens, HepG2, 48 h
Description: Antiproliferative activity against human HepG2 cells assessed as inhibition of cell growth incubated for 48 hrs by CCK-8 assay

HCT-116 [8] = assay: Induction of apoptosis in human HCT-116 cells assessed as upregulation of Bax expression at 0.5 to 2 uM incubated for 24 hrs by Western blotting analysis; format: functional, cell-based; conditions: dose 0.5-2 µM
[9] = Toxicity in BALB/c mouse xenografted with human MDA-MB-231 cells assessed as morphological change in liver at 40 mg/kg,ip administrated for 21 consecutive days by hematoxylin and eosin staining based analysis; format: organism-based; conditions: in vivo
MDA-MB-231 [10] = assay: Antitumor activity against human MDA-MB-231 cells xenografted in BALB/c mouse assessed as tumor growth inhibition at 40 mg/kg,ip administrated for 21 consecutive days; format: functional; conditions: read-out: TGI
HCT-116 [11] = assay: Induction of apoptosis in human HCT-116 cells incubated for 24 hrs by annexin-V-FITC/PI staining based flow cytometric analysis; format: functional, cell-based
MDA-MB-231 [12] = assay: Induction of cell cycle arrest in human MDA-MB-231 cells assessed as downregulation of E2F1 expression at 0.5 to 2 uM incubated for 24 hrs by Western blotting analysis; format: functional, cell-based; conditions: dose 0.5-2 µM
MDA-MB-231 [13] = assay: Induction of apoptosis in human MDA-MB-231 cells incubated for 24 hrs by annexin-V-FITC/PI staining based flow cytometric analysis; format: functional, cell-based
MDA-MB-231 [14] = assay: Antitumor activity against human MDA-MB-231 cells xenografted in BALB/c mouse assessed as tumor growth inhibition at 20 mg/kg,ip administrated for 21 consecutive days; format: functional; conditions: read-out: TGI
CDK4/Cyclin D3 = CDK4/Cyclin D3 (Homo sapiens, UniProt P11802); assay: Inhibition of CDK4/CyclinD3 (unknown origin) preincubated for 15 mins followed by substrate and ATP addition incubated for 10 mins by ADP-glo luminescent assay; format: protein-complex assay
MDA-MB-231 [15] = assay: Induction of cell cycle arrest in human MDA-MB-231 cells assessed as downregulation of phoshorylated Rb at 0.5 to 2 uM incubated for 24 hrs by Western blotting analysis; format: functional, cell-based; conditions: dose 0.5-2 µM
[16] = molecular target: CDK6/cyclin D3 (Homo sapiens) (UniProt P30281+Q00534); assay: Inhibition of CDK6/CyclinD3 (unknown origin) at 100 nM preincubated for 15 mins followed by substrate and ATP addition incubated for 10 mins by ADP-glo luminescent assay relative to control; format: protein-complex assay; conditions: time 25.0 min
MDA-MB-231 [17] = assay: Induction of apoptosis in human MDA-MB-231 cells assessed as downregulation of BCL-2 expression at 0.5 to 2 uM incubated for 24 hrs by Western blotting analysis; format: functional, cell-based; conditions: dose 0.5-2 µM
HCT-116 [18] = assay: Induction of cell cycle arrest in human HCT-116 cells assessed as accumulation of cells at G1 phase at 0.5 to 2 uM incubated for 24 hrs by RNase/PI staining based flow cytometric analysis; format: functional; conditions: dose 0.5-2 µM
MDA-MB-231 [19] = assay: cells; conditions: Homo sapiens, MDA-MB-231, 48 h
Description: Antiproliferative activity against human MDA-MB-231 cells assessed as inhibition of cell growth incubated for 48 hrs by CCK-8 assay

HCT-116 [20] = assay: Induction of apoptosis in human HCT-116 cells assessed as downregulation of BCL-2 expression at 0.5 to 2 uM incubated for 24 hrs by Western blotting analysis; format: functional, cell-based; conditions: dose 0.5-2 µM
[21] = Cmax in Sprague-Dawley rat at 10 mg/kg,iv administration measured upto 24 hrs by LC-MS/MS analysis; format: ADME, organism-based; conditions: in vivo
MDA-MB-231 [22] = assay: Induction of ferroptosis in human MDA-MB-231 cells assessed as downregulation of GPX4 expression incubated for 24 hrs by Western blotting analysis; format: functional, cell-based
HCT-116 [23] = assay: Induction of cell cycle arrest in human HCT-116 cells assessed as downregulation of phoshorylated Rb at 0.5 to 2 uM incubated for 24 hrs by Western blotting analysis; format: functional, cell-based; conditions: dose 0.5-2 µM
HCT-116 [24] = assay: cells; conditions: Homo sapiens, HCT-116, 48 h
Description: Antiproliferative activity against human HCT-116 cells assessed as inhibition of cell growth incubated for 48 hrs by CCK-8 assay

A549 = assay: cells; conditions: Homo sapiens, A549, 48 h
Description: Antiproliferative activity against human A549 cells assessed as inhibition of cell growth incubated for 48 hrs by CCK-8 assay

HCT-116 [25] = assay: Induction of ferroptosis in human HCT-116 cells assessed as increase in intracellular lipid peroxide level incubated for 24 hrs by […] staining based confocal laser scanning microscopic analysis; format: functional, cell-based
HCT-116 [26] = assay: Induction of ferroptosis in human HCT-116 cells assessed as downregulation of GPX4 expression incubated for 24 hrs by Western blotting analysis; format: functional, cell-based
[27] = Toxicity in BALB/c mouse xenografted with human MDA-MB-231 cells assessed as morphological change in kidney at 20 mg/kg,ip administrated for 21 consecutive days by hematoxylin and eosin staining based analysis; format: organism-based; conditions: in vivo
[28] = Intrinsic clearance in human liver microsomes in presence of NADPH incubated for 5 to 45 mins by LC/MS analysis; format: ADME, Microsome; conditions: time 5-45 min, read-out: CLH
[29] = Toxicity in ICR mouse assessed as lethal dose at ip administration for 14 days; format: organism-based; conditions: in vivo, time 14 day
[30] = AUC (0 to t) in Sprague-Dawley rat at 10 mg/kg,iv administration measured upto 24 hrs by LC-MS/MS analysis; format: ADME, organism-based; conditions: in vivo
MDA-MB-231 [31] = assay: Induction of ferroptosis in human MDA-MB-231 cells assessed as increase in intracellular ferrous ion level at 0.5 to 2 uM incubated for 24 hrs by ferroOrange probe based flow cytometric analysis; format: functional, cell-based; conditions: dose 0.5-2 µM
[32] = Toxicity in BALB/c mouse xenografted with human MDA-MB-231 cells assessed as morphological change in heart at 40 mg/kg,ip administrated for 21 consecutive days by hematoxylin and eosin staining based analysis; format: organism-based; conditions: in vivo
[33] = MRT (0 to t) in Sprague-Dawley rat at 10 mg/kg,iv administration measured upto 24 hrs by LC-MS/MS analysis; format: ADME, organism-based; conditions: in vivo
[34] = Clearance in Sprague-Dawley rat at 10 mg/kg,iv administration measured upto 24 hrs by LC-MS/MS analysis; format: ADME, organism-based; conditions: in vivo

Sequence of CDK4/Cyclin D3 (P11802 whole entry): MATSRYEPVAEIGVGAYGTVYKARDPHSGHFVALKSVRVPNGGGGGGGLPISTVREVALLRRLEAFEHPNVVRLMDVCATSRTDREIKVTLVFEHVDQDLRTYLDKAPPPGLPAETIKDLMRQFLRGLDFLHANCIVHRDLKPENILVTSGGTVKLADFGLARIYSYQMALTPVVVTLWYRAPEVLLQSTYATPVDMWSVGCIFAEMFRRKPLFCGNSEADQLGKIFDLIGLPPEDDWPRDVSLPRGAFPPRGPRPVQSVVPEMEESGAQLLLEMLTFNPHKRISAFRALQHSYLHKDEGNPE
Sequence of CDK4/Cyclin D3 (P30281 whole entry, further chain): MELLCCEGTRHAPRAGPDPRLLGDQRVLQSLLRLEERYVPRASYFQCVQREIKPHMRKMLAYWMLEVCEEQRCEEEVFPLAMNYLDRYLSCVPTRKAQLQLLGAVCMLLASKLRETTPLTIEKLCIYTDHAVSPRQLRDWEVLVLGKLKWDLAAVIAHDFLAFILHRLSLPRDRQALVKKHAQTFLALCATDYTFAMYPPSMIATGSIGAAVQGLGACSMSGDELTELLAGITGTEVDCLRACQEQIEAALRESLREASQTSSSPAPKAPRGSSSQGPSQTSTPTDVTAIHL

In the case of `COc1ccc2c(c1)NC(=O)/C2=C1\Nc2ccccc2\C1=N/OCCCNC(=O)CCn1cc(COc2ccc(N(C(=O)CCl)C(C(=O)NCCc3ccccc3)c3cccs3)cc2Cl)nn1` (configuration not stated), the Activity [1] is reported as “Non-Toxic”, the Activity [2] is reported as “Non-Toxic” and the Activity (MDA-MB-231 [3]) is reported as “Active”. For the same molecule, the Activity [4] was “Non-Toxic”, the Activity [5] was “Non-Toxic” and the Activity [6] was “Non-Toxic”. The Tmax [7] was 0.8 h, the IC50 (HepG2) was 1490 nM and the Activity (HCT-116 [8]) was “Active”. For the same molecule, the Activity [9] was “Non-Toxic”, the inhibition in vivo at 40 mg/kg (MDA-MB-231 [10]) was 83.3% and the Activity (HCT-116 [11]) was “Dose-Dependent Effect”. For the same molecule, the Activity (MDA-MB-231 [12]) was “Active”, the Activity (MDA-MB-231 [13]) was “Dose-Dependent Effect” and the inhibition in vivo at 20 mg/kg (MDA-MB-231 [14]) was 67.8%. The IC50 (CDK4/Cyclin D3) was 191 nM, the Activity (MDA-MB-231 [15]) was “Active” and the inhibition [16] was 51.8%. The Activity (MDA-MB-231 [17]) was “Active”, the Activity (HCT-116 [18]) was “Active” and the IC50 (MDA-MB-231 [19]) was 800 nM. For the same molecule, the Activity (HCT-116 [20]) was “Active”, the Cmax [21] was 9230 ng/mL and the Activity (MDA-MB-231 [22]) was “Dose-Dependent Effect”. The Activity (HCT-116 [23]) was “Active”, the IC50 (HCT-116 [24]) was 750 nM and the IC50 (A549) was 1020 nM. For the same molecule, the Activity (HCT-116 [25]) was “Dose-Dependent Effect”, the Activity (HCT-116 [26]) was “Dose-Dependent Effect” and the Activity [27] was “Non-Toxic”. It also gave a CLint scaled [28] of 27.3 mL/min/kg, an LD50 at 336 h [29] of 185 mg/kg and an AUC(0-t) at 24 h [30] of 15700 ng·h/mL. The Activity (MDA-MB-231 [31]) was “Active”, the Activity [32] was “Non-Toxic” and the MRT last at 24 h [33] was 3.6 h. For the same molecule, the clearance [34] was 10.2 mL/min/kg.

Source: ChEMBL document CHEMBL5528035, “Design, Synthesis, and Biological Evaluation for First GPX4 and CDK Dual Inhibitors” (J Med Chem, 2024)
